Earlier results on one compound are cited in patent US20250049595A1, “ZOTAROLIMUS-ROSUVASTATIN ELUTING BIODEGRADABLE STENT” (priority 2023, published 2025).

For this data set the following is noted: targeted by typical daily dose between 5 and 40 mg.

`CC(C)c1nc(N(C)S(C)(=O)=O)nc(-c2ccc(F)cc2)c1/C=C/[C@@H](O)C[C@@H](O)CC(=O)O` [Rosuvastatin]: the plasma concentration was 0.5 ng/mL.
